In patent US10829473B2, “Modulators of the cystic fibrosis transmembrane conductance regulator protein and methods of use” (AbbVie Overseas S.Á.R.L., priority 2017, dated 2020):
Like-named read-outs stand apart in the source and are kept apart here. Marks after values point to notes of the source that are not given here.

Biological target: T1, F508delCFTR (Homo sapiens, UniProt P13569, DEL508-508)
T1 construct: expressed in transfected cells; host or cells: CFBE41o- human lung derived epithelial cells (CFBE41o-F508delCFTR-HRP), doxycycline-inducible
T1 sequence (P13569 with tags, fused parts or gaps DEL508-508): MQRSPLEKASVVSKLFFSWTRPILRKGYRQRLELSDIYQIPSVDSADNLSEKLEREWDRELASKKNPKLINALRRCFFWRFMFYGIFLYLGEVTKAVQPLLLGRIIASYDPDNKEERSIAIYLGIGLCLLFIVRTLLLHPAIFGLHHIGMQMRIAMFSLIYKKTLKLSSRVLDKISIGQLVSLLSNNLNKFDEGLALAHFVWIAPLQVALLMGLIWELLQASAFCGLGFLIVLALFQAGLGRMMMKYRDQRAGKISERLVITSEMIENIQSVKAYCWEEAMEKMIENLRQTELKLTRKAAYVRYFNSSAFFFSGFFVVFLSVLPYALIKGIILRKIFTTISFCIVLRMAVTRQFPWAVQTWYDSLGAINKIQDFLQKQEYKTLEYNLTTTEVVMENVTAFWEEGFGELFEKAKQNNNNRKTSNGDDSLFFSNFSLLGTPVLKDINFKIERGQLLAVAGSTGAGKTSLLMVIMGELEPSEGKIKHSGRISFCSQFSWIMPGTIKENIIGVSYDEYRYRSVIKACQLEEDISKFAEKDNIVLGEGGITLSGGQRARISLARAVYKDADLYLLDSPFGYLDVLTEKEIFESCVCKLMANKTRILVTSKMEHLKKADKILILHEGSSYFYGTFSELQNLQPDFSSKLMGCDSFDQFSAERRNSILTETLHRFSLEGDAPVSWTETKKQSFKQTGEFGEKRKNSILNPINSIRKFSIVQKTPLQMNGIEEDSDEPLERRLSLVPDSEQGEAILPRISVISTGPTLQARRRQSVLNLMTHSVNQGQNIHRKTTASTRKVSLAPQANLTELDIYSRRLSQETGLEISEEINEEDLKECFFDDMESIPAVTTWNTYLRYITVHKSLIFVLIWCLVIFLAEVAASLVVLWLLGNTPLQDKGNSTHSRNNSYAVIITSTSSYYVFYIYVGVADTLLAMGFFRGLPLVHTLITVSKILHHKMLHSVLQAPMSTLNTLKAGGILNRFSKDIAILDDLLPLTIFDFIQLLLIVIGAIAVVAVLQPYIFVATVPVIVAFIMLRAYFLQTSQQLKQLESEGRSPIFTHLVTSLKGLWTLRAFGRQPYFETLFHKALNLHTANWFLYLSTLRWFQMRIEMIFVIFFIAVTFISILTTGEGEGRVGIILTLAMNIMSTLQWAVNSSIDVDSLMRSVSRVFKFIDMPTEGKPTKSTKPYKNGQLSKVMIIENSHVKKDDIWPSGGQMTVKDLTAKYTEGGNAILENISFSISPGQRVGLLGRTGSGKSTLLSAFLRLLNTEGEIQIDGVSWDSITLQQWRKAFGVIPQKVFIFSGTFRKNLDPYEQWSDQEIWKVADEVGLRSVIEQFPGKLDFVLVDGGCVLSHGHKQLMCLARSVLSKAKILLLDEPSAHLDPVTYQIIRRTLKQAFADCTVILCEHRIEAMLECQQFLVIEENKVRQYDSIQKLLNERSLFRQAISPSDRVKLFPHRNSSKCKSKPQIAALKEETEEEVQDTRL
Experiment: Cell Surface Expression-Horse Radish Peroxidase (CSE-HRP) Assay;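 as to EC50 (with co-corrector): co-corrector chromenyl benzoic acid corrector at 2 or 3 µM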;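 as to Maximum % activity (without co-corrector): % of on-plate positive control chromenyl benzoic acid corrector at 2 or 3 µM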
Type: cell-based
Conditions: for Maximum % activity (with co-corrector) / Emax: maximum at any tested concentration; for Emax: read-out: Maximum % activity (without co-corrector)
Summary of the method: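 Corrector compounds were given as 8-point 3-fold series from 20 or 30 μM, with or without a 2 μM co-corrector, for 18-24 h at 33 °C. Surface HRP was read by luminol luminescence as % of positive control; variable-Hill-slope sigmoidal fitting gave EC50 from triplicate plates.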

[1] = test compound alone, without co-corrector, read-out: EC50 (without co-corrector)
[2] = with co-corrector, read-out: EC50 (with co-corrector)
[3] = test compound with co-corrector
[4] = test compound with co-corrector, read-out: EC50 (with co-corrector)
[5] = test compound without co-corrector
[6] = test compound without co-corrector, read-out: EC50 (without co-corrector)

SMILES | EC50 [1] [µM] | Maximum % activity (with co-corrector) (with co-corrector) | EC50 [2] [µM] | Emax (without co-corrector) [%] | Maximum % activity (with co-corrector) [3] | EC50 [4] [µM] | Emax [5] [%] | EC50 [6] [µM] | EC50 (with co-corrector) [3] | EC50 (without co-corrector) [5]
COC[C@@H](C)Oc1ccc(C)cc1C1(C(=O)NS(=O)(=O)c2cccc3ncccc23)CC1 [Example I-95, 1-(2-{[(2R)-1-methoxypropan-2-yl]oxy}-5-methylphenyl)-N-(quinoline-5-sulfonyl)cyclopropane-1-carboxamide] | < 3 | +++ (≥350) | < 3 | > 150 | – | – | – | – | – | –
COc1cccc(C2(C(=O)NS(=O)(=O)c3cccc4ccccc34)CC2)c1 [II-1] | 3 to 10 | +++ (≥350) | 3 to 10 | > 150 | – | – | – | – | – | –
Cc1ccc(C)c(C2(C(=O)NS(=O)(=O)c3cccc4ncccc34)CC2)c1 [II-61] | < 3 | +++ (≥350) | < 3 | > 150 | – | – | – | – | – | –
CCOc1ccc(C)cc1C1(C(=O)NS(=O)(=O)c2cccc3ncccc23)CC1 [Example I-82, 1-(2-ethoxy-5-methylphenyl)-N-(quinoline-5-sulfonyl)cyclopropane-1-carboxamide] | < 3 | +++ (≥350) | < 3 | > 150 | – | – | – | – | – | –
CC(C)COc1ncc(N2CCCC2)cc1C1(C(=O)NS(=O)(=O)c2cccc3ncccc23)CC1 [Example GI-68, 1-[2-(2-methylpropoxy)-5-(pyrrolidin-1-yl)pyridin-3-yl]-N-(quinoline-5-sulfonyl)cyclopropane-1-carboxamide] | – | – | – | – | +++ (≥350) | < 3 | > 150 | < 3 | – | –
Cc1cnc(OCC(C)C)c(C2(C(=O)NS(=O)(=O)c3cccc4ncccc34)CC2)c1 [Example GI-42, 1-[5-methyl-2-(2-methylpropoxy)pyridin-3-yl]-N-(quinoline-5-sulfonyl)cyclopropane-1-carboxamide] | – | – | – | – | +++ (≥350) | < 3 | > 150 | < 3 | – | –
Cc1ccc2c(S(=O)(=O)NC(=O)C3(c4cc(C5CCC5)cnc4N4CCC(OC(C)C)CC4)CC3)cccc2n1 [Example GI-113, 1-(5-cyclobutyl-2-{4-[(propan-2-yl)oxy]piperidin-1-yl}pyridin-3-yl)-N-(2-methylquinoline-5-sulfonyl)cyclopropane-1-carboxamide] | – | – | – | – | +++ (≥350) | < 3 | > 150 | < 3 | – | –
COc1cccc(C)c1C1(C(=O)NS(=O)(=O)c2cccc3nc(C)ccc23)CC1 [II-50] | 3 to 10 | +++ (≥350) | < 3 | > 150 | – | – | – | – | – | –
COCCOc1ncc(C2CCC2)cc1C1(C(=O)NS(=O)(=O)c2cccc3nc(C)ccc23)CC1 [Example GI-94, 1-[5-cyclobutyl-2-(2-methoxyethoxy)pyridin-3-yl]-N-(2-methylquinoline-5-sulfonyl)cyclopropane-1-carboxamide] | – | – | – | – | +++ (≥350) | < 3 | > 150 | < 3 | – | –
COc1ccc(C)c(C)c1C1(C(=O)NS(=O)(=O)c2cccc3nc(C)ccc23)CC1 [II-51] | < 3 | +++ (≥350) | < 3 | > 150 | – | – | – | – | – | –
CO[C@H](C)COc1ccc(C)cc1C1(C(=O)NS(=O)(=O)c2cccc3ncccc23)CC1 [Example I-115, 1-{2-[(2R)-2-methoxypropoxy]-5-methylphenyl}-N-(quinoline-5-sulfonyl)cyclopropane-1-carboxamide] | < 3 | +++ (≥350) | < 3 | > 150 | – | – | – | – | – | –
Cc1ccc(C2(C(=O)NS(=O)(=O)c3cccc4[nH]ccc34)CC2)c(OC(C)C)n1 [Example GI-82, N-(1H-indole-4-sulfonyl)-1-{6-methyl-2-[(propan-2-yl)oxy]pyridin-3-yl}cyclopropane-1-carboxamide] | – | – | – | – | +++ (≥350) | < 3 | > 150 | < 3 | – | –
CC(C)Oc1ncc(C2CCC2)cc1C1(C(=O)NS(=O)(=O)c2cccc3ncccc23)CC1 [Example GI-22, 1-{5-cyclobutyl-2-[(propan-2-yl)oxy]pyridin-3-yl}-N-(quinoline-5-sulfonyl)cyclopropane-1-carboxamide] | < 3 | +++ (≥350) | < 3 | > 150 | – | – | – | – | – | –
CCOc1ccc(C)cc1C1(C(=O)NS(=O)(=O)c2cccc3[nH]c(C)cc23)CC1 [Example I-91, 1-(2-ethoxy-5-methylphenyl)-N-(2-methyl-1H-indole-4-sulfonyl)cyclopropane-1-carboxamide] | < 3 | +++ (≥350) | < 3 | > 150 | – | – | – | – | – | –
COc1cc(C2CCC2)cc(OC)c1C1(C(=O)NS(=O)(=O)c2cccc3cnn(C)c23)CC1 [II-67] | < 3 | +++ (≥350) | < 3 | > 150 | – | – | – | – | – | –
Cc1ccc(OC2COC2)c(C2(C(=O)NS(=O)(=O)c3cccc4nc(C)ccc34)CC2)c1 [Example I-106, 1-{5-methyl-2-[(oxetan-3-yl)oxy]phenyl}-N-(2-methylquinoline-5-sulfonyl)cyclopropane-1-carboxamide] | 3 to 10 | +++ (≥350) | < 3 | > 150 | – | – | – | – | – | –
COCC(C)(C)c1ccc(OC)c(C2(C(=O)NS(=O)(=O)c3cccc4ncccc34)CC2)c1 [Example I-110, 1-[2-methoxy-5-(1-methoxy-2-methylpropan-2-yl)phenyl]-N-(quinoline-5-sulfonyl)cyclopropane-1-carboxamide] | < 3 | +++ (≥350) | < 3 | > 150 | – | – | – | – | – | –
COc1cc(C2(C(=O)NS(=O)(=O)c3cccc4[nH]ccc34)CC2)c(OCC(C)C)cn1 [Example GI-21, N-(1H-indole-4-sulfonyl)-1-[2-methoxy-5-(2-methylpropoxy)pyridin-4-yl]cyclopropane-1-carboxamide] | < 3 | +++ (≥350) | < 3 | > 150 | – | – | – | – | – | –
COc1ccc(C2CCC2)cc1C1(C(=O)NS(=O)(=O)c2cccc3cnn(C)c23)CCC1 [Example I-25, 1-(5-cyclobutyl-2-methoxyphenyl)-N-(1-methyl-1H-indazole-7-sulfonyl)cyclobutane-1-carboxamide] | < 3 | +++ (≥350) | < 3 | > 150 | – | – | – | – | – | –
Cc1ccc(O[C@@H]2CCOC2)c(C2(C(=O)NS(=O)(=O)c3cccc4ncccc34)CC2)c1 [Example I-122, 1-(5-methyl-2-{[(3R)-oxolan-3-yl]oxy}phenyl)-N-(quinoline-5-sulfonyl)cyclopropane-1-carboxamide] | < 3 | +++ (≥350) | < 3 | > 150 | – | – | – | – | – | –
COc1ccc(C2(OC)CCC2)cc1C1(C(=O)NS(=O)(=O)c2cccc3nc(C)ccc23)CC1 [II-100] | 3 to 10 | +++ (≥350) | < 3 | > 150 | – | – | – | – | – | –

The remaining lines, values ahead:

EC50 [1] [µM] | Maximum % activity (with co-corrector) (with co-corrector) | EC50 [2] [µM] | Emax (without co-corrector) [%] | Maximum % activity (with co-corrector) [3] | EC50 [4] [µM] | Emax [5] [%] | EC50 [6] [µM] | EC50 (with co-corrector) [3] | EC50 (without co-corrector) [5] | SMILES
> 10 | + (<150) | > 10 | < 50 | – | – | – | – | – | – | O=C(NS(=O)(=O)c1ccc2ccccc2c1)C1(c2ccc(Cl)cc2Cl)CC1 [Example III-27, 1-(2,4-dichlorophenyl)-N-(naphthalene-2-sulfonyl)cyclopropane-1-carboxamide]
3 to 10 | +++ (≥350) | 3 to 10 | 50 to 150 | – | – | – | – | – | – | COc1ncc(C(F)(F)F)cc1C1(C(=O)NS(=O)(=O)c2cccc3ncn(C)c23)CC1 [Example III-96, 1-[2-methoxy-5-(trifluoromethyl)pyridin-3-yl]-N-(1-methyl-1H-benzimidazole-7-sulfonyl)cyclopropane-1-carboxamide]
– | – | – | – | ++ (≥150 and <350) | 3 to 10 | 50 to 150 | 3 to 10 | – | – | Cc1cnc(N2CCCC2)cc1C1(C(=O)NS(=O)(=O)c2cccc3ncccc23)CC1 [GII-9, 1-[5-methyl-2-(pyrrolidin-1-yl)pyridin-4-yl]-N-(quinoline-5-sulfonyl)cyclopropane-1-carboxamide]
> 10 | + (<150) | > 10 | < 50 | – | – | – | – | – | – | O=C(N1CCc2ccc(S(=O)(=O)NC(=O)C3(c4cccc(Cl)c4)CC3)cc2C1)C(F)(F)F [Example III-72, 1-(3-chlorophenyl)-N-[2-(trifluoroacetyl)-1,2,3,4-tetrahydroisoquinoline-7-sulfonyl]cyclopropane-1-carboxamide]
– | – | – | – | ++ (≥150 and <350) | – | 50 to 150 | – | ++^a | ++^a | COc1cc(C2(C(=O)NS(=O)(=O)c3cccc4ncccc34)CC2)c(OC(F)F)cn1 [GIII-19]
> 10 | ++ (≥150 and <350) | 3 to 10 | < 50 | – | – | – | – | – | – | O=C(NS(=O)(=O)c1ccccc1)C1(c2ccccc2F)CC1 [Example III-30, N-(benzenesulfonyl)-1-(2-fluorophenyl)cyclopropane-1-carboxamide]
3 to 10 | +++ (≥350) | < 3 | > 150 | – | – | – | – | – | – | Cc1cnc(OCC(C)C)c(C2(C(=O)NS(=O)(=O)c3cccc4[nH]ncc34)CC2)c1 [Example III-130, N-(1H-indazole-4-sulfonyl)-1-[5-methyl-2-(2-methylpropoxy)pyridin-3-yl]cyclopropane-1-carboxamide]
